The experiment concerns the target human orexin-2 receptor (Homo sapiens (Human), UniProt O43614). The experiment can be described thus: FLIPR Ca2+ Flux Assay, orexin-2 receptor. In kind it is cell-based. The conditions noted are these: CHO cells expressing the human orexin-2 receptor; agonist 70 pM Ala-6,12 human orexin-A; read-out: hOX2 FLIPR IC50. As to the method:
In a typical experiment the OX1 and OX2 receptor antagonistic activity of the compounds of the present invention was determined in accordance with the following experimental method. For intracellular calcium measurements, Chinese hamster ovary (CHO) cells expressing the rat orexin-1 receptor or the human orexin-2 receptor, are grown in Iscove's modified DMEM containing 2 mM L-glutamine, […], 1% hypoxanthine-thymidine supplement, 100 U/ml penicillin, 100 μg/ml streptomycin and 10% heat-inactivated fetal calf serum (FCS). The cells are seeded at 20,000 cells/well into Becton-Dickinson black 384-well clear bottom sterile plates coated with poly-D-lysine. All reagents are from GIBCO-Invitrogen Corp. The seeded plates are incubated overnight at 37° C. and 5% CO2. Ala-6,12 human orexin-A as the agonist is prepared as a 1 mM stock solution in 1% bovine serum albumin (BSA) and diluted in assay buffer (HBSS containing 20 mM HEPES, 0.1% BSA and 2.5 mM probenecid, pH7.4) for use in the assay at a final concentration of 70 pM. Test compounds are prepared as 10 mM stock solution in DMSO, then diluted in 384-well plates, first in DMSO, then assay buffer. On the day of the assay, cells are washed 3 times with 100 μl assay buffer and then incubated for 60 min (37° C., 5% CO2) in 60 μl assay buffer containing 1 μM Fluo-4AM ester, 0.02% pluronic acid, and 1% BSA. The dye loading solution is then aspirated and cells are washed 3 times with 100 μl assay buffer. 30 μl of that same buffer is left in each well. Within the Fluorescent Imaging Plate Reader (FLIPR, Molecular Devices), test compounds are added to the plate in a volume of 25 μl, incubated for 5 min and finally 25 μl of agonist is added. Fluorescence is measured for each well at 1 second intervals for 5 minutes and the height of each fluorescence peak is compared to the height of the fluorescence peak induced by 70 pM Ala-6,12 orexin-A with buffer in place of antagonist. […] The intrinsic orexin receptor antagonist activity of a compound which may be used in the present invention may be determined by these assays.
Chain of human orexin-2 receptor (O43614 whole entry): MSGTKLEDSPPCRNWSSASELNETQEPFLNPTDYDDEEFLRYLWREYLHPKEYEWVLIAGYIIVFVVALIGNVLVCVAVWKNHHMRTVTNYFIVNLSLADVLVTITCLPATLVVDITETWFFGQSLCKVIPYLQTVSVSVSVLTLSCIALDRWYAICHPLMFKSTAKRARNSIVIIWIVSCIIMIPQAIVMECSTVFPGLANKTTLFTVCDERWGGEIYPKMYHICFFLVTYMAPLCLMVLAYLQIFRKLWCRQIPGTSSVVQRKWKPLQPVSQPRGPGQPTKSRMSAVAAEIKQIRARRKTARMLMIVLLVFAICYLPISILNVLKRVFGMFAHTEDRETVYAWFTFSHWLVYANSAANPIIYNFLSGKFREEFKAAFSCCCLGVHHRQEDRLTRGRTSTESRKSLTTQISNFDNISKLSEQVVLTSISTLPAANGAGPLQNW
Turning to `CCOc1ccccc1C(=O)N1C[C@H](c2cc(C(C)(C)O)no2)CC[C@H]1C` [Example 31, 2-(5-{(3R,6R)-1-[(2-Ethoxyphenyl)carbonyl]-6-methylpiperidin-3-yl}isoxazol-3-yl)propan-2-ol], the IC50 turned out to be 178 nM. Under `C[C@@H]1CC[C@@H](c2cc(C(C)(C)O)no2)CN1C(=O)c1ccccc1-n1ncnn1` [Example 32, 2-{5-[(3R,6R)-6-Methyl-1-{[2-(2H-tetrazol-2-yl)phenyl]carbonyl}piperidin-3-yl]isoxazol-3-yl}propan-2-ol] stands 124 nM; under `C[C@@H]1CC[C@@H](c2cc(C(C)(C)O)no2)CN1C(=O)c1cccnc1-c1ccccc1` [Example 33, 2-(5-{(3R,6R)-6-Methyl-1-[(2-phenylpyridin-3-yl)carbonyl]piperidin-3-yl}isoxazol-3-yl)propan-2-ol], 134 nM. `C[C@@H]1CC[C@@H](c2cc(C(C)(C)O)no2)CN1C(=O)c1ncccc1-c1ccccc1` [Example 34, 2-(5-{(3R,6R)-6-Methyl-1-[(3-phenylpyridin-2-yl)carbonyl]piperidin-3-yl}isoxazol-3-yl)propan-2-ol]: the IC50 came to 264 nM.

Regarding `C[C@@H]1CC[C@@H](c2cc(C(C)(C)O)no2)CN1C(=O)c1ccccc1OCC(F)F` [Example 35, 2-{5-[(3R,6R)-1-{[2-(2,2-Difluoroethoxy)phenyl]carbonyl}-6-methylpiperidin-3-yl]isoxazol-3-yl}propan-2-ol], the IC50 came out at 140 nM. The result for `C[C@@H]1CC[C@@H](c2cc(C(C)(C)O)no2)CN1C(=O)c1ccccc1OCC(F)(F)F` [Example 36, 2-{5-[(3R,6R)-6-Methyl-1-{[2-(2,2,2-trifluoroethoxy)phenyl]carbonyl}piperidin-3-yl]isoxazol-3-yl}propan-2-ol] reads 212 nM; that for `C[C@@H]1CC[C@@H](c2cc(C(C)(C)O)no2)CN1C(=O)c1ccccc1-c1cnccn1` [Example 37, 2-(5-{(3R,6R)-6-Methyl-1-[(2-pyrazin-2-ylphenyl)carbonyl]piperidin-3-yl}isoxazol-3-yl)propan-2-ol], 1030 nM. The result for `C[C@@H]1CC[C@@H](c2cc(C(C)(C)O)no2)CN1C(=O)c1ccccc1C1CC1(F)F` (stereo partly drawn) [Example 38, 2-{5-[(3R,6R)-1-{[2-(2,2-Difluorocyclopropyl)phenyl]carbonyl}-6-methylpiperidin-3-yl]isoxazol-3-yl}propan-2-ol] reads 52.4 nM; that for `CC[C@@H]1CC[C@@H](c2cc(C(C)(C)O)no2)CN1C(=O)c1ccccc1-n1nccn1` [Example 39, 2-{5-[(3R,6R)-6-Ethyl-1-{[2-(2H-1,2,3-triazol-2-yl)phenyl]carbonyl}piperidin-3-yl]isoxazol-3-yl}propan-2-ol], 42.4 nM. The result for `C[C@@H]1CC[C@@H](c2cc([C@@H](O)C(F)(F)F)no2)CN1C(=O)c1ccccc1-n1nccn1` [Example 40, (1R)-2,2,2-Trifluoro-1-{5-[(3R,6R)-6-methyl-1-{[2-(2H-1,2,3-triazol-2-yl)phenyl]carbonyl}piperidin-3-yl]isoxazol-3-yl}ethanol] reads 11 nM; that for `C[C@@H]1CC[C@@H](c2cc([C@H](O)C(F)(F)F)no2)CN1C(=O)c1ccccc1-n1nccn1` [Example 41, (1S)-2,2,2-trifluoro-1-{5-[(3R,6R)-6-methyl-1-{[2-(2H-1,2,3-triazol-2-yl)phenyl]carbonyl}piperidin-3-yl]isoxazol-3-yl}ethanol], 17.5 nM. Take `C[C@@H]1CC[C@@H](c2cc([C@@H](O)C(F)(F)F)no2)CN1C(=O)c1ccsc1-n1nccn1` [Example 42, (1R)-2,2,2-Trifluoro-1-{5-[(3R,6R)-6-methyl-1-{[2-(2H-1,2,3-triazol-2-yl)thiophen-3-yl]carbonyl}piperidin-3-yl]isoxazol-3-yl}ethanol]: the IC50 turned out to be 154 nM. Turning to `C[C@@H]1CC[C@@H](c2cc([C@H](O)C(F)(F)F)no2)CN1C(=O)c1ccsc1-n1nccn1` [Example 43, (1S)-2,2,2-trifluoro-1-{5-[(3R,6R)-6-methyl-1-{[2-(2H-1,2,3-triazol-2-yl)thiophen-3-yl]carbonyl}piperidin-3-yl]isoxazol-3-yl}ethanol], the IC50 came out at 162 nM. The result for `C[C@@H]1CC[C@@H](c2cc([C@@H](O)C(F)(F)F)no2)CN1C(=O)c1ccccc1C1(C#N)CC1` [Example 44, 1-(2-{[(2R,5R)-2-Methyl-5-{3-[(1R)-2,2,2-Trifluoro-1-hydroxyethyl]isoxazol-5-yl}piperidin-1-yl]carbonyl}phenyl)cyclopropanecarbonitrile] reads 26.8 nM; that for `C[C@@H]1CC[C@@H](c2cc([C@H](O)C(F)(F)F)no2)CN1C(=O)c1ccccc1C1(C#N)CC1` [Example 45, 1-(2-{[(2R,5R)-2-Methyl-5-{3-[(1S)-2,2,2-trifluoro-1-hydroxyethyl]isoxazol-5-yl}piperidin-1-yl]carbonyl}phenyl)cyclopropanecarbonitrile], 41.2 nM; that for `C[C@@H]1CC[C@@H](c2cc([C@@H](O)C(F)(F)F)no2)CN1C(=O)c1ccccc1-n1ncnn1` [Example 46, (1R)-2,2,2-Trifluoro-1-{5-[(3R,6R)-6-methyl-1-{[2-(2H-tetrazol-2-yl)phenyl]carbonyl}piperidin-3-yl]isoxazol-3-yl}ethanol], 356 nM. Turning to `C[C@@H]1CC[C@@H](c2cc([C@H](O)C(F)(F)F)no2)CN1C(=O)c1ccccc1-n1ncnn1` [Example 47, (1S)-2,2,2-Trifluoro-1-{5-[(3R,6R)-6-methyl-1-{[2-(2H-tetrazol-2-yl)phenyl]carbonyl}piperidin-3-yl]isoxazol-3-yl}ethanol], the IC50 was found to be 328 nM. For the compound `C[C@@H]1CC[C@@H](c2cc([C@H](O)C(F)(F)F)no2)CN1C(=O)c1ccsc1-c1ncccn1` [Example 48, (1S)-2,2,2-Trifluoro-1-(5-{(3R,6R)-6-methyl-1-[(2-pyrimidin-2-ylthiophen-3-yl)carbonyl]piperidin-3-yl}isoxazol-3-yl)ethanol], the IC50 was 113 nM. In the case of `C[C@@H]1CC[C@@H](c2cc([C@@H](O)C(F)(F)F)no2)CN1C(=O)c1ccsc1-c1ncccn1` [Example 49, (1R)-2,2,2-Trifluoro-1-(5-{(3R,6R)-6-methyl-1-[(2-pyrimidin-2-ylthiophen-3-yl)carbonyl]piperidin-3-yl}isoxazol-3-yl)ethanol], the IC50 amounted to 112 nM.

`C[C@@H]1CC[C@@H](c2cc([C@@H](O)C(F)(F)F)no2)CN1C(=O)c1ccccc1-c1ncccn1` [Example 50, (1R)-2,2,2-Trifluoro-1-(5-{(3R,6R)-6-methyl-1-[(2-pyrimidin-2-ylphenyl)carbonyl]piperidin-3-yl}isoxazol-3-yl)ethanol]: the IC50 was 110 nM. Consider `C[C@@H]1CC[C@@H](c2cc([C@H](O)C(F)(F)F)no2)CN1C(=O)c1ccccc1-c1ncccn1` [Example 51, (1S)-2,2,2-trifluoro-1-(5-{(3R,6R)-6-methyl-1-[(2-pyrimidin-2-ylphenyl)carbonyl]piperidin-3-yl}isoxazol-3-yl)ethanol], for which the IC50 worked out at 146 nM. Under `CCC(C)(O)c1cc([C@@H]2CC[C@@H](C)N(C(=O)c3ccccc3-n3nccn3)C2)on1` (stereo partly drawn) [Example 54, 2-{5-[(3R,6R)-6-Methyl-1-{[2-(2H-1,2,3-triazol-2-yl)phenyl]carbonyl}piperidin-3-yl]isoxazol-3-yl}butan-2-ol] stands 76.1 nM.

The values are drawn from patent publication US10017504B2, “Piperidine isoxazole and isothiazole orexin receptor antagonists” (MERCK SHARP & DOHME CORP., priority 2014, dated 2018).
